SMILES strings stand for the structures. Where a name gives a salt, the structure may show the parent alone. Read-outs that look alike come from different tables or passages of the source. A value given as a limit tells only on which side of the number the result lay.

The test system of data set [1] is kinase domain of the T790M double mutant. Particulars: cited from earlier work.
A further data set is described as follows: Solubility of salt forms. Particulars: for Final pH: final pH of the solubility test. In kind it is physicochemical.
Data set [2] can be described thus: Dynamic vapor sorption (DVS). It counts as physicochemical. Particulars: for hygroscopicity classification according to DVS results / weight gain (DVS): from 0 to 80% RH.

For orientation: Solubility means the dissolved amount per volume that the medium holds. With `C=CC(=O)Nc1cc(Nc2nccc(-c3cn(C)c4ccccc34)n2)c(OC)cc1OCCN(C)C` [Compound 1, N-(2-(2-(Dimethylamino)ethoxy)-4-methoxy-5-((4-(1-methyl-1H-indol-3-yl)pyrimidin-2-yl)amino)phenyl)acrylamide], the “inhibition of the kinase domain of the T790M double mutant” value in data set [1] is recorded as “effectively inhibits”. For the same molecule, in the data set “Solubility of salt forms”, the Solubility stood at 50 µg/mL and the “Final pH” value came to 6.2.

Regarding `C=CC(=O)Nc1cc(Nc2nccc(-c3cn(C)c4ccccc34)n2)c(OC)cc1OCCN(C)C.Cc1ccc(S(=O)(=O)O)cc1` [Compound 5, N-(2-(2-(Dimethylamino)ethoxy)-4-methoxy-5-((4-(1-methyl-1H-indol-3-yl)pyrimidin-2-yl)amino)phenyl)acrylamide p-toluenesulfonate (1:1)], the “Final pH” value in the data set “Solubility of salt forms” came out at 5.8. For the same molecule, the Solubility in “Solubility of salt forms” (read-out: Solubility) stood at 530 µg/mL. Further, in data set [2], the “DVS Sorption” value came to 1.86%, the “hygroscopicity classification according to DVS results” value is reported as “slightly hygroscopic” and the “weight gain (DVS)” value was 1.86%.

`C=CC(=O)Nc1cc(Nc2nccc(-c3cn(C)c4ccccc34)n2)c(OC)cc1OCCN(C)C` [3 (Form 2B), N-(2-(2-(Dimethylamino)ethoxy)-4-methoxy-5-((4-(1-methyl-1H-indol-3-yl)pyrimidin-2-yl)amino)phenyl)acrylamide methanesulfonate (1:1)]: the “DVS Sorption” value in data set [2] was found to be 14.44%.

`C=CC(=O)Nc1cc(Nc2nccc(-c3cn(C)c4ccccc34)n2)c(OC)cc1OCCN(C)C.Cl` [Compound 3, N-(2-(2-(Dimethylamino)ethoxy)-4-methoxy-5-((4-(1-methyl-1H-indol-3-yl)pyrimidin-2-yl)amino)phenyl)acrylamide hydrochloride (1:1)]: in “Solubility of salt forms”, the “Final pH” value worked out at 6.0. Moreover, the Solubility in the data set “Solubility of salt forms” (read-out: Solubility) came out at 810 µg/mL. Besides, in data set [2], the “DVS Sorption” value is reported as 0.76%, the “hygroscopicity classification according to DVS results” value was “slightly hygroscopic” and the “weight gain (DVS)” value is recorded as 0.76%.

Consider `C=CC(=O)Nc1cc(Nc2nccc(-c3cn(C)c4ccccc34)n2)c(OC)cc1OCCN(C)C` [Compound 6, N-(2-(2-(Dimethylamino)ethoxy)-4-methoxy-5-((4-(1-methyl-1H-indol-3-yl)pyrimidin-2-yl)amino)phenyl)acrylamide citrate (1:1)], for which, in the data set “Solubility of salt forms”, the Solubility was found to be 6900 µg/mL and the “Final pH” value amounted to 4.6.

As for `C=CC(=O)Nc1cc(Nc2nccc(-c3cn(C)c4ccccc34)n2)c(OC)cc1OCCN(C)C` [Compound 4, N-(2-(2-(Dimethylamino)ethoxy)-4-methoxy-5-((4-(1-methyl-1H-indol-3-yl)pyrimidin-2-yl)amino)phenyl)acrylamide sulfate (1:1)], in “Solubility of salt forms”, the Solubility was >79000 µg/mL and the “Final pH” value amounted to 2.4. In data set [2], the “DVS Sorption” value amounted to 10.60%, the “hygroscopicity classification according to DVS results” value is listed as “hygroscopic” and the “weight gain (DVS)” value is reported as 10.60%.

Take `C=CC(=O)Nc1cc(Nc2nccc(-c3cn(C)c4ccccc34)n2)c(OC)cc1OCCN(C)C` [Compound 2, N-(2-(2-(Dimethylamino)ethoxy)-4-methoxy-5-((4-(1-methyl-1H-indol-3-yl)pyrimidin-2-yl)amino)phenyl)acrylamide methanesulfonate (1:1)]: in the data set “Solubility of salt forms”, the Solubility is >53000 µg/mL and the “Final pH” value stood at 4.9. Moreover, in data set [2], the “hygroscopicity classification according to DVS results” value is recorded as “hygroscopic” and the “weight gain (DVS)” value worked out at 14.44%. Besides, the “DVS Sorption” value in data set [2] (listed as 2 (Form 2A)) was found to be 0.91%.
